# Assay results as given in US20070275984A1, “Novel Thieno-Pyridine and Thieno-Pyrimidine Derivatives and Their Use as Positive Allosteric Modulators of Mglur2-Receptors” (JANSSEN PHARMACEUTICA N.V., priority 2004, published 2007).
row,melting point,SMILES
1,108.5 °C,"COc1ccc(CCNc2ncnc3sc(C(C)C)cc23)cc1 [Compound 93, N-(4-methoxyphenethyl)-6-isopropylthieno[2,3-d]pyrimidin-4-amine]"
2,65 °C,"COc1cccc(CNc2ncnc3sc(C(C)C)cc23)c1 [Compound 91, N-(3-methoxybenzyl)-6-isopropylthieno[2,3-d]pyrimidin-4-amine]"
3,199 °C,"COc1ccc(CCNc2ncnc3sc(C)cc23)cc1 [Compound 27, N-(4-methoxyphenethyl)-6-methylthieno[2,3-d]pyrimidin-4-amine]"
4,68 °C,"CCCc1cc2c(NCCNc3ccccc3)ncnc2s1 [Compound 89, N-(2-(phenylamino)ethyl)-6-propylthieno[2,3-d]pyrimidin-4-amine]"
5,135 °C,"COc1cc(CCNc2nc(C)nc3sc(C)cc23)ccc1O [Compound 31, 4-(2-(2,6-dimethylthieno[2,3-d]pyrimidin-4-ylamino)ethyl)-2-methoxyphenol]"
6,127.5 °C,"COc1ccc(CNc2nc(C)nc3sc(C)cc23)cc1 [Compound 8, N-(4-methoxybenzyl)-2,6-dimethylthieno[2,3-d]pyrimidin-4-amine]"
7,95 °C,"CCCCc1cc2c(NCCc3ccccc3)ncnc2s1 [Compound 94, 6-butyl-N-phenethylthieno[2,3-d]pyrimidin-4-amine]"
8,105 °C,"Cc1nc(N2CCc3ccccc3C2)c2cc(C)sc2n1 [Compound 4, 2-(2,6-dimethylthieno[2,3-d]pyrimidin-4-yl)-1,2,3,4-tetrahydroisoquinoline]"
9,105 °C,"CCc1nc(NCCc2ccc(OC)c(OC)c2)c2cc(C)sc2n1 [Compound 34, N-(3,4-dimethoxyphenethyl)-2-ethyl-6-methylthieno[2,3-d]pyrimidin-4-amine]"
10,162.5 °C,"Cc1nc(NCCc2cccc(O)c2)c2cc(C)sc2n1 [Compound 22, N-(3-hydroxyphenethyl)-2,6-dimethylthieno[2,3-d]pyrimidin-4-amine]"
11,134 °C,"COc1ccccc1CCNc1nc(C)nc2sc(C)cc12 [Compound 24, N-(2-methoxyphenethyl)-2,6-dimethylthieno[2,3-d]pyrimidin-4-amine]"
12,139 °C,"Cc1nc(NCCc2ccccn2)c2cc(C)sc2n1 [Compound 48, 2,6-dimethyl-N-(2-(pyridin-2-yl)ethyl)thieno[2,3-d]pyrimidin-4-amine]"
13,81 °C,"COc1ccc(CCN(C)c2nc(C)nc3sc(C)cc23)cc1 [Compound 51, N-(4-methoxyphenethyl)-N,2,6-trimethylthieno[2,3-d]pyrimidin-4-amine]"
14,128.5 °C,"CCCc1cc2c(NCCc3ccc(OC)c(OC)c3)ncnc2s1 [Compound 87, N-(3,4-dimethoxyphenethyl)-6-propylthieno[2,3-d]pyrimidin-4-amine]"
15,159 °C,"Cc1nc(NCC(=O)c2ccccc2)c2cc(C)sc2n1 [Compound 12, 2-(2,6-dimethylthieno[2,3-d]pyrimidin-4-ylamino)-1-phenylethanone]"
16,83.5 °C,"CCc1nc(NCCc2cccc(OC)c2)c2cc(C)sc2n1 [Compound 26, N-(3-methoxyphenethyl)-2-ethyl-6-methylthieno[2,3-d]pyrimidin-4-amine]"
17,122 °C,"COc1cccc(CCCNc2nc(C)nc3sc(C)cc23)c1 [Compound 55, N-(3-(3-methoxyphenyl)propyl)-2,6-dimethylthieno[2,3-d]pyrimidin-4-amine]"
18,102 °C,"CCc1cc2c(NCCc3ccc(OC)cc3)nc(C)nc2s1 [Compound 71, N-(4-methoxyphenethyl)-6-ethyl-2-methylthieno[2,3-d]pyrimidin-4-amine]"
19,117.5 °C,"CC(C)c1cc2c(NCCc3ccccc3)ncnc2s1 [Compound 92, 6-isopropyl-N-phenethylthieno[2,3-d]pyrimidin-4-amine]"
20,166 °C,"Cc1nc(NCCc2ccc(O)cc2)c2cc(C)sc2n1 [Compound 23, 4-(2-(2,6-dimethylthieno[2,3-d]pyrimidin-4-ylamino)ethyl)phenol]"

# Continued, compound first:
row,SMILES,melting point
1,"CCc1nc(NCCc2ccc(OC)cc2)c2cc(C)sc2n1 [Compound 29, N-(4-methoxyphenethyl)-2-ethyl-6-methylthieno[2,3-d]pyrimidin-4-amine]",82 °C
2,"Cc1nc(NCCc2ccccc2)c2cc(C)sc2n1 [Compound 13, 2,6-dimethyl-N-phenethylthieno[2,3-d]pyrimidin-4-amine]",106 °C
3,"CCCc1cc2c(NCCc3ccc(O)cc3)nc(Cl)nc2s1 [Compound 84, 4-(2-(2-chloro-6-propylthieno[2,3-d]pyrimidin-4-ylamino)ethyl)phenol]",135 °C
4,"CCc1cc2c(NCc3ccccc3)ncnc2s1 [Compound 64, N-benzyl-6-ethylthieno[2,3-d]pyrimidin-4-amine]",133 °C
5,"Cc1ccc(CCNc2nc(C)nc3sc(C)cc23)cc1 [Compound 19, N-(4-methylphenethyl)-2,6-dimethylthieno[2,3-d]pyrimidin-4-amine]",115 °C
6,"Cc1nc(NCCc2ccccc2)c2ccsc2n1 [Compound 1, 2-methyl-N-phenethylthieno[2,3-d]pyrimidin-4-amine]",111 °C
7,"CCc1ccc(CCNc2nc(C)nc3sc(C)cc23)cc1 [Compound 20, N-(4-ethylphenethyl)-2,6-dimethylthieno[2,3-d]pyrimidin-4-amine]",62 °C
8,"CCc1cc2c(NCCc3cccc(OC)c3)ncnc2s1 [Compound 69, N-(3-methoxyphenethyl)-6-ethylthieno[2,3-d]pyrimidin-4-amine]",81 °C
9,"CCc1nc(NCCc2ccccc2)c2ccsc2n1 [Compound 2, 2-ethyl-N-phenethylthieno[2,3-d]pyrimidin-4-amine]",89 °C
10,"COc1cccc(CNc2nc(C)nc3sc(Cc4ccccc4)cc23)c1 [Compound 60, N-(3-methoxybenzyl)-6-benzyl-2-methylthieno[2,3-d]pyrimidin-4-amine]",107 °C
11,"Cc1nc(NCC(O)c2ccccc2)c2cc(C)sc2n1 (stereo not drawn) [Compound 53, 2-(2,6-dimethylthieno[2,3-d]pyrimidin-4-ylamino)-1-phenylethanol]",117 °C
12,"CCCc1cc2c(NCCc3ccc(OC)cc3)ncnc2s1 [Compound 85, N-(4-methoxyphenethyl)-6-propylthieno[2,3-d]pyrimidin-4-amine]",102 °C
13,"Cc1nc(NCCCCc2ccccc2)c2cc(C)sc2n1 [Compound 54, 2,6-dimethyl-N-(4-phenylbutyl)thieno[2,3-d]pyrimidin-4-amine]",108 °C
14,"CN(C)C(=O)c1cc2c(NCCc3ccccc3)ncnc2s1 [Compound 62, N,N-dimethyl-4-(phenethylamino)thieno[2,3-d]pyrimidine-6-carboxamide]",157 °C
15,"CCc1cc2c(NCc3cccc(OC)c3)ncnc2s1 [Compound 65, N-(3-methoxybenzyl)-6-ethylthieno[2,3-d]pyrimidin-4-amine]",99 °C
16,"CCCc1cc2c(NCc3cccc(OC)c3)ncnc2s1 [Compound 77, N-(3-methoxybenzyl)-6-propylthieno[2,3-d]pyrimidin-4-amine]",118 °C

row,SMILES,melting point
1,"Cc1nc(NCC(C)c2ccccc2)c2cc(C)sc2n1 (stereo not drawn) [Compound 52, 2,6-dimethyl-N-(2-phenylpropyl)thieno[2,3-d]pyrimidin-4-amine]",94 °C
2,"COc1cc(CCNc2nc(C)nc3sc(C)cc23)cc(OC)c1 [Compound 35, N-(3,5-dimethoxyphenethyl)-2,6-dimethylthieno[2,3-d]pyrimidin-4-amine]",106 to 107 °C
3,"Cc1cc2c(NCCc3ccccc3)nc(Cl)nc2s1 [Compound 14, 2-chloro-6-methyl-N-phenethylthieno[2,3-d]pyrimidin-4-amine]",119 °C
4,"CCc1nc(NCc2cccc(OC)c2)c2cc(C)sc2n1 [Compound 7, N-(3-methoxybenzyl)-2-ethyl-6-methylthieno[2,3-d]pyrimidin-4-amine]",108.4 °C
5,"COc1cccc(CCNc2nc(C)nc3sc(C)cc23)c1 [Compound 25, N-(3-methoxyphenethyl)-2,6-dimethylthieno[2,3-d]pyrimidin-4-amine]",139 °C
6,CCc1cc2c(NC(C)c3ccccc3)ncnc2s1 (stereo not drawn),141 °C
7,"CCCc1cc2c(NCCc3ccc(O)cc3)nc(OC)nc2s1 [Compound 83, 4-(2-(2-methoxy-6-propylthieno[2,3-d]pyrimidin-4-ylamino)ethyl)phenol]",79 °C
8,"COc1ccc(CNc2nc(C)nc3sc(C)cc23)cc1OC [Compound 9, N-(3,4-dimethoxybenzyl)-2,6-dimethylthieno[2,3-d]pyrimidin-4-amine]",142 °C
9,"CCOc1ccc(CCNc2nc(C)nc3sc(C)cc23)cc1 [Compound 30, N-(4-ethoxyphenethyl)-2,6-dimethylthieno[2,3-d]pyrimidin-4-amine]",101 to 103 °C
10,"CCCc1cc2c(NCCc3ccc(OC)cc3)nc(OC)nc2s1 [Compound 86, N-(4-methoxyphenethyl)-2-methoxy-6-propylthieno[2,3-d]pyrimidin-4-amine]",92 °C
11,"CCc1cc2c(NCCc3ccccc3)ncnc2s1 [Compound 68, 6-ethyl-N-phenethylthieno[2,3-d]pyrimidin-4-amine]",118 °C
12,"Cc1nc(NCCOc2ccccc2)c2cc(C)sc2n1 [Compound 47, 2,6-dimethyl-N-(2-phenoxyethyl)thieno[2,3-d]pyrimidin-4-amine]",156.5 °C
13,"CCc1cc2c(NCCc3ccc(OC)c(OC)c3)nc(C)nc2s1 [Compound 73, N-(3,4-dimethoxyphenethyl)-6-ethyl-2-methylthieno[2,3-d]pyrimidin-4-amine]",78 °C
14,"Cc1nc(NCCc2cccs2)c2cc(C)sc2n1 [Compound 50, 2,6-dimethyl-N-(2-(thiophen-2-yl)ethyl)thieno[2,3-d]pyrimidin-4-amine]",102.5 to 103.7 °C
15,"Cc1nc(NCc2cccc(Cl)c2)c2cc(C)sc2n1 [Compound 10, N-(3-chlorobenzyl)-2,6-dimethylthieno[2,3-d]pyrimidin-4-amine]",136.5 °C
